Experimental data taken from patent publication US10792291B2, “Applications for levonorgestrel in preparing anti-ovarian cancer products” (SHANGHAI JIAO TONG UNIVERSITY, priority 2015, dated 2020).

Key:
Assay type in all cases: cell-based
[1] = test system: SKOV-3 ovarian cancer cells; experiment: CELLTITER-GLO Luminescent Cell Viability Assay, SKOV-3 ovarian cancer cells
Description: In example 1, CELLTITER-GLO was used to test levonorgestrel against ovarian cancer. m) A cell counter was used to count the number of suspended cells and adjust the cell suspension to an appropriate density in the plate to carry out cell plating experiments. n) SKOV-3 cells were handled as described above, and a SKOV-3 96-well cell culture plate was obtained. The complete medium for SKOV-3 cells was McCOY'S 5A (a live product), Cat #16600082, with a cells/well density of 12000. 2. The drug analyte levonorgestrel was prepared and administered (200× final concentration): a) DMSO was used to dilute the analyte levonorgestrel to 20 mM for use. b) 79 μL of the 20 mM analyte prepared in step a) was added to the first well in the first row of the dilution plate, and then 54 μL of DMSO solution was added to the second through ninth wells of the first row. […] The final concentrations (μM) of the analyte drug in wells 2-10 in FIG. 1 are, in order: 100, 31.64557, 10.01442, 3.16912, 1.002886, 0.317369, 0.100433, 0.031783, 0.010058; B. CELLTITER-GLO Luminescent Cell Viability Assay System a) Before testing, the SKOV-3 96-well drug screening plate described in 3 above was stabilized to room temperature for 20-30 minutes. c) 100 μl of CellTiter-Glo reagent (prepared as described in 1 above) was added to all drug screening plates and mixed evenly. d) It was thoroughly oscillated in a 96-well microplate oscillator for 2 minutes to allow the cells to undergo full lysis. e) It was stored away from light at room temperature for 15 minutes before carrying out luminescent signal detection to ensure signal stability. f) An EnSpire multi-function plate reader was used at 570 nm to read the luminescent signals. g) Data was processed and analyzed.

[2] = test system: NCI-H441 human lung adenocarcinoma cells; experiment: CELLTITER-GLO cell viability assay, NCI-H441 cells (same method)
Experimental: (§1) In the examples below, the product sources for the SKOV-3 ovarian cancer cells, the NCI-H1993 non-small cell human lung cancer cells, and the NCI-H441 human lung adenocarcinoma cells are as follows: In example 1, CELLTITER-GLO was used to test levonorgestrel against ovarian cancer. c) The SKOV-3 96-well cell plates prepared in step 1 were removed from the incubator, and 10 μl of the cell culture media (10× final concentration) with varying drug concentrations as described in b) above was added to the SKOV-3 96-well cell culture plate row-by-row as shown in FIG. 1. It was placed into a CO2 incubator at 37° C. for 72 hours, obtaining the SKOV-3 96-well drug screening plate. The final concentrations (μM) of the analyte drug in wells 2-10 in FIG. 1 are, in order: 100, 31.64557, 10.01442, 3.16912, 1.002886, 0.317369, 0.100433, 0.031783, 0.010058; B. CELLTITER-GLO Luminescent Cell Viability Assay System c) 100 μl of CellTiter-Glo reagent (prepared as described in 1 above) was added to all drug screening plates and mixed evenly. f) An EnSpire multi-function plate reader was used at 570 nm to read the luminescent signals. The same method was used to test levonorgestrel's action on the IC50 values of NCI-H1993 human lung non-small cell carcinoma cells and NCI-H441 human lung adenocarcinoma cells; results are shown in Table 1.

[3] = test system: NCI-H1993 human lung non-small cell carcinoma cells; experiment: CELLTITER-GLO cell viability assay, NCI-H1993 cells (same method)
Experimental: as §1

IC50 ([1]; Homo sapiens, SK-OV-3, SKOV-3 cells, 72 hours, CellTiter-Glo): 3.34 µM
EC50 ([1]; Homo sapiens, SK-OV-3, SKOV-3 cells, 72 hours, CellTiter-Glo, FIG. 2): 3.08 µM
IC50 [2]: ≥ 100 µM
IC50 [3]: ≥ 100 µM
Structure (SMILES): C#C[C@]1(O)CC[C@H]2[C@@H]3CCC4=CC(=O)CC[C@@H]4[C@H]3CC[C@@]21CC [levonorgestrel]
effect on the proliferation of ovarian cancer cells ([1]; compared with NCI-H441 and NCI-H1993 lung cancer cells): specific inhibitory effect
